In patent US11572590B2, “Methods for evaluating tumor cell spheroids using 3D microfluidic cell culture device” (Dana-Farber Cancer Institute, Inc., priority 2017, dated 2023):
Where two headings read alike, the source gives them in different places.

Columns and labels:
Assay in all cases: SelectScreen Kinase Profiling, single point inhibition and IC50 for off-target kinases
Assay type in all cases: biochemical
off-target kinases [1] = target: off-target kinases (Homo sapiens, UniProt Q13464); conditions: ROCK1, ZLYTE, ATP Km app
off-target kinases [2] = target: off-target kinases (Homo sapiens, UniProt P54756); conditions: EPHA5, ZLYTE, ATP Km app
off-target kinases (Homo sapiens, UniProt P54756), sequence (P54756 25-1037): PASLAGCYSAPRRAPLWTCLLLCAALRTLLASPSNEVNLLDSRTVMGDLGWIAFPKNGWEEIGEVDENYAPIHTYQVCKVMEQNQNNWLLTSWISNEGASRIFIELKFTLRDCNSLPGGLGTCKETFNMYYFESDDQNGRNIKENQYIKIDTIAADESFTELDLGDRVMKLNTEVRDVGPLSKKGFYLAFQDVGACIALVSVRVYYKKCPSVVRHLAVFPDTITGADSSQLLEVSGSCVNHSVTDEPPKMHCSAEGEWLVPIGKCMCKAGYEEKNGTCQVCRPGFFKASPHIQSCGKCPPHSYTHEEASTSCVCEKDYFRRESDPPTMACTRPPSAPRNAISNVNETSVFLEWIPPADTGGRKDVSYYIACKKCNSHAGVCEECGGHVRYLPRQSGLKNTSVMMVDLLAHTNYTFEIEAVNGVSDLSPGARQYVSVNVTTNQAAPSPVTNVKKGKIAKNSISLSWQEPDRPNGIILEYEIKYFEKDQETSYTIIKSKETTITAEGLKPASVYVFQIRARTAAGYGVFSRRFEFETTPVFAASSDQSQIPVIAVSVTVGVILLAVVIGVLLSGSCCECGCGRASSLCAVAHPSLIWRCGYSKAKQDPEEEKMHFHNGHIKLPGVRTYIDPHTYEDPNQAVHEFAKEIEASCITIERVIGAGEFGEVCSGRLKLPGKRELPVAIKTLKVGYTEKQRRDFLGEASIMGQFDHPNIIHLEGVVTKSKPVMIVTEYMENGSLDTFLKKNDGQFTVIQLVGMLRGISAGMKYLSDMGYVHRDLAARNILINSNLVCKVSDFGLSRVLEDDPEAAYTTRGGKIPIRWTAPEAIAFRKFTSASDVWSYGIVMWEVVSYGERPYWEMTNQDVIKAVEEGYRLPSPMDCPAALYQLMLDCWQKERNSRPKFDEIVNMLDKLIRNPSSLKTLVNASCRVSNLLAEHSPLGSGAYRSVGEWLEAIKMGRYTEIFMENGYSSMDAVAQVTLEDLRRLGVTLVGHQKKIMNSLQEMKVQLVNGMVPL

off-target kinases [3] = target: off-target kinases (Homo sapiens, UniProt Q9NYL2); conditions: ZAK, LanthaScreen Binding
off-target kinases [4] = target: off-target kinases (Homo sapiens, UniProt Q9UM73, L1196M); conditions: ALKL1196M (mutant), LanthaScreen Binding
off-target kinases (Homo sapiens, UniProt Q9UM73, L1196M), sequence (Q9UM73 19-1620 L1196M): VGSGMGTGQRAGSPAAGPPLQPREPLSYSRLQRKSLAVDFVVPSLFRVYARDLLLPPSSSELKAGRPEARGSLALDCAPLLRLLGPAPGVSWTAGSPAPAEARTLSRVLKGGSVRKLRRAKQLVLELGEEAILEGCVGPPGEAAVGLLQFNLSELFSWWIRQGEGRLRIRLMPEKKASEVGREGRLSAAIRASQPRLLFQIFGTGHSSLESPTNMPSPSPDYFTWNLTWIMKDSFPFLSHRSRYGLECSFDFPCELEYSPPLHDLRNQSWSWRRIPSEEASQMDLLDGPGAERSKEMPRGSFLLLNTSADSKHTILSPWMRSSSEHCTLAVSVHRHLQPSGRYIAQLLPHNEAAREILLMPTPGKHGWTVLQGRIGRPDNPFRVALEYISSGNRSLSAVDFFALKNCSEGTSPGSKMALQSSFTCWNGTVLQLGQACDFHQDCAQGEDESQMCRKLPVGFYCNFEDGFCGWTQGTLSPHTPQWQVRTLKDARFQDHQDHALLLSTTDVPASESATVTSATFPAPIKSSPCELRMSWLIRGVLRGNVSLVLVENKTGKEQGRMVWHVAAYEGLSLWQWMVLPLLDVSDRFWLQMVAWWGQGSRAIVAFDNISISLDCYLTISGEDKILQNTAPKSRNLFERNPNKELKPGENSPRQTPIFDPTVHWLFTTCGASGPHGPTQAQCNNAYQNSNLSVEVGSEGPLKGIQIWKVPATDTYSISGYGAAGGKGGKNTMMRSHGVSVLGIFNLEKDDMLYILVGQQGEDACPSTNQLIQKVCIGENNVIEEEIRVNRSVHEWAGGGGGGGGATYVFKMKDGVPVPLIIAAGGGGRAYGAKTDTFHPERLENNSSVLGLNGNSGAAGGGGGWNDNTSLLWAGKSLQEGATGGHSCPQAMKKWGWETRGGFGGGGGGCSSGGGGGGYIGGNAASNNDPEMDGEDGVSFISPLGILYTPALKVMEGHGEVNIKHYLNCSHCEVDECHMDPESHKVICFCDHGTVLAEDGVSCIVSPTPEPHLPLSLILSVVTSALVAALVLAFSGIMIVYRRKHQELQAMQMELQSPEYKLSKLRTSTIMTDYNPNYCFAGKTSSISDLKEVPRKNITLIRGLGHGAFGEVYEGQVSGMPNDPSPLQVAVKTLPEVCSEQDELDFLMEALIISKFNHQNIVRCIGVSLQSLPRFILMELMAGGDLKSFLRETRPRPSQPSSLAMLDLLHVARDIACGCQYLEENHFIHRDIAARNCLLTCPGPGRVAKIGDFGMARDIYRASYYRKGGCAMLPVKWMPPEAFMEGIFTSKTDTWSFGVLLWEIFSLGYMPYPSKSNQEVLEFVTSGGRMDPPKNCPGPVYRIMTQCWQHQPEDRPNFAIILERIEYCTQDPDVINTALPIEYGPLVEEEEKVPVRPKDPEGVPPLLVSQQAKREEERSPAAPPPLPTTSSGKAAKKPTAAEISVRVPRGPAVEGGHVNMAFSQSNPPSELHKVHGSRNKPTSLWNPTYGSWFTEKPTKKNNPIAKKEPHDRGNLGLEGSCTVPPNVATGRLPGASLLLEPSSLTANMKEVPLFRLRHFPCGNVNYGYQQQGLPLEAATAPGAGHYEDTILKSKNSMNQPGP

off-target kinases [5] = target: off-target kinases (Homo sapiens, UniProt P12931); conditions: SRC, ATP Km app, ZLYTE
off-target kinases (Homo sapiens, UniProt P12931), sequence (P12931 whole entry): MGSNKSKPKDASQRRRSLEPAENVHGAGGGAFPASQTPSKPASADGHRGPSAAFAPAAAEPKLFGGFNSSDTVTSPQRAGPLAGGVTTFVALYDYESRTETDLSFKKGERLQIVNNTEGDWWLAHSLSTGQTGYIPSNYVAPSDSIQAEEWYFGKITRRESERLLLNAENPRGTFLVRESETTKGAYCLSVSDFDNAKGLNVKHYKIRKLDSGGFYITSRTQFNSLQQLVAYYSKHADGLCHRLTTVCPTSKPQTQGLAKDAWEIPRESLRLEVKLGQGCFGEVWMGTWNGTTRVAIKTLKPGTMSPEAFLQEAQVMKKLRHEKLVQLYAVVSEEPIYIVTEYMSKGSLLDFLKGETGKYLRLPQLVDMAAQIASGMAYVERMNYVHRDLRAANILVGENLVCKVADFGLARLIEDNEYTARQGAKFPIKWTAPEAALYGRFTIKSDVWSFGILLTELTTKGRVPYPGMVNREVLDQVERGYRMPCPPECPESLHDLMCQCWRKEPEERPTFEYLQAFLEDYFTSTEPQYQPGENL

off-target kinases [6] = target: off-target kinases (Homo sapiens, UniProt P10721, Y823D); conditions: KIT Y823D, LanthaScreen Binding
off-target kinases (Homo sapiens, UniProt P10721, Y823D), sequence (P10721 26-976 Y823D): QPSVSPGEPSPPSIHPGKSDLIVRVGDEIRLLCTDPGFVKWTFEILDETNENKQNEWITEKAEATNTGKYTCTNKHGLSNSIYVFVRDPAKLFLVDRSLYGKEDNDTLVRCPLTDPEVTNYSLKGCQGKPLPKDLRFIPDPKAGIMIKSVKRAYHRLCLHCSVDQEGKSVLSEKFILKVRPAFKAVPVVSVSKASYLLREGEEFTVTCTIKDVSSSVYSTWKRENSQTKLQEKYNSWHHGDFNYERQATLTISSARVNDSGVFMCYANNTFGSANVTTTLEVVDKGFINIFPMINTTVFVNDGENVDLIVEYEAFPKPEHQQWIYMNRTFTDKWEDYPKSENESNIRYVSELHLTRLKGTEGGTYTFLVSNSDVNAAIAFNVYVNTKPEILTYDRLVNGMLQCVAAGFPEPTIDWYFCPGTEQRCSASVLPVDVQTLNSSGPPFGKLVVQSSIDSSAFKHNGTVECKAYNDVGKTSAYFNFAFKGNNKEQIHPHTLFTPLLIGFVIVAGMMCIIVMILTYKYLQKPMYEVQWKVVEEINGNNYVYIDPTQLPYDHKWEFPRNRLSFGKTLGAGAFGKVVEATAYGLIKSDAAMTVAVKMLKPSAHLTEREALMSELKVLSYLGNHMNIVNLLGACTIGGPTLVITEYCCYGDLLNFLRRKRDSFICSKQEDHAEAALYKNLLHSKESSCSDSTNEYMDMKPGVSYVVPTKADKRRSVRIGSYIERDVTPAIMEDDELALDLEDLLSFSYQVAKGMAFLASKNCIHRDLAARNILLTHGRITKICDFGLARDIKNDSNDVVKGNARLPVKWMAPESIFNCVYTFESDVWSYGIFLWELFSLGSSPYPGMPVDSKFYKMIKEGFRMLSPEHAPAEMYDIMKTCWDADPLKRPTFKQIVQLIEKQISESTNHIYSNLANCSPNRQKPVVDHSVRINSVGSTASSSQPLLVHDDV

off-target kinases [7] = target: off-target kinases (Homo sapiens, UniProt P57059); conditions: SIK1, LanthaScreen Binding
off-target kinases [8] = target: off-target kinases (Homo sapiens, UniProt P30530, R499C); conditions: AXL R499C, mutant y, LanthaScreen Binding
off-target kinases (Homo sapiens, UniProt P30530, R499C), sequence (P30530 26-894 R499C): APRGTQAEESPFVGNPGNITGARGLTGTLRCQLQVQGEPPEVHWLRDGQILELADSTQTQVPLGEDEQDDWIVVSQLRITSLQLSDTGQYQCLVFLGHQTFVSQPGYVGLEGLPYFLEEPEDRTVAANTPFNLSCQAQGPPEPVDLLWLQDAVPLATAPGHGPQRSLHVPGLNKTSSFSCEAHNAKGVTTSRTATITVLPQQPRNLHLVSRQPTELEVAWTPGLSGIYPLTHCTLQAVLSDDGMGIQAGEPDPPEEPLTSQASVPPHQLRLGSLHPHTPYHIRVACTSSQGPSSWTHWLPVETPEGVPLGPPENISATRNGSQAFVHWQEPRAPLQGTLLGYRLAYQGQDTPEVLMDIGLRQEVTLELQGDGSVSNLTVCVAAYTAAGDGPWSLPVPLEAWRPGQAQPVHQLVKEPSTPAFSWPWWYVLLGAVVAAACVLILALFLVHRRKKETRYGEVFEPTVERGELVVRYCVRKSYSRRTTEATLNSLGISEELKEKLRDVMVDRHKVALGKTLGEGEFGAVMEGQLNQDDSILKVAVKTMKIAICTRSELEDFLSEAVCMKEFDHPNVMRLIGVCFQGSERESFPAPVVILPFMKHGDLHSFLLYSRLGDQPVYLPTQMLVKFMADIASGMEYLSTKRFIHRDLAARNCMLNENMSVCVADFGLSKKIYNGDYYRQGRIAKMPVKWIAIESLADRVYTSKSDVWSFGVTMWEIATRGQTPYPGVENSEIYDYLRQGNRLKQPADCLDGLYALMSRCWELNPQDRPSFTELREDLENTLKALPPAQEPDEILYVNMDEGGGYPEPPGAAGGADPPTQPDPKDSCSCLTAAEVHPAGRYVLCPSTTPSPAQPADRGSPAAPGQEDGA

Which results are given for `N#Cc1cc(-c2ncnc(Nc3ccc(N4CCN(C5COC5)CC4)cc3)n2)ccc1OC1CCOCC1` [Compound 1, 5-(4-((4-(4-(oxetan-3-yl)piperazin-1-yl)phenyl)amino)-1,3,5-triazin-2-yl)-2-((tetrahydro-2H-pyran-4-yl)oxy)benzonitrile]?
inhibition (off-target kinases [1]; read-out: % Inhibition 1): 6%; inhibition (off-target kinases [1]; read-out: % Inhibition 2): 14%; inhibition (off-target kinases [1]; read-out: % Inhibition Avg): 10%; inhibition (off-target kinases [2]; read-out: % Inhibition 1): 3%; inhibition (off-target kinases [2]; read-out: % Inhibition 2): 4%; inhibition (off-target kinases [2]; read-out: % Inhibition Avg): 3%; inhibition (off-target kinases [3]; read-out: % Inhibition 1): 6%; inhibition (off-target kinases [3]; read-out: % Inhibition 2): 10%; inhibition (off-target kinases [3]; read-out: % Inhibition Avg): 8%; inhibition (off-target kinases [4]; read-out: % Inhibition 1): 1%; inhibition (off-target kinases [4]; read-out: % Inhibition 2): 9%; inhibition (off-target kinases [4]; read-out: % Inhibition Avg): 5%; inhibition (off-target kinases [5]; read-out: % Inhibition 1): 45%; inhibition (off-target kinases [5]; read-out: % Inhibition 2): 44%; inhibition (off-target kinases [5]; read-out: % Inhibition Avg): 45%; inhibition (off-target kinases [6]; read-out: % Inhibition 1): 47%; inhibition (off-target kinases [6]; read-out: % Inhibition 2): 59%; inhibition (off-target kinases [6]; read-out: % Inhibition Avg): 53%; inhibition (off-target kinases [7]; read-out: % Inhibition 1): 57%; inhibition (off-target kinases [7]; read-out: % Inhibition 2): 54%; inhibition (off-target kinases [7]; read-out: % Inhibition Avg): 56%; inhibition (off-target kinases [8]; read-out: % Inhibition 1): 28%; inhibition (off-target kinases [8]; read-out: % Inhibition 2): 27%; inhibition (off-target kinases [8]; read-out: % Inhibition Avg): 27%
